Measurements published in DBAASP.
Converted amounts (≈) assume the structure as drawn. Values belong to the compound of their own block, whether it stands above or below them.

Key:
Test in all cases: ≥ marks a high value that may be exact or a test limit, other limits are often not marked, values filed in µg/mL are converted to µM
[1] = test system: Stenotrophomonas maltophilia 2
[2] = test system: Staphylococcus aureus ATCC 25923
[3] = test system: Staphylococcus epidermidis
Arcyria cinerea = test system: Arcyria cinerea
Candida glabrata = test system: Candida glabrata
Klebsiella pneumoniae = test system: Klebsiella pneumoniae
Bacillus cereus = test system: Bacillus cereus
Staphylococcus aureus 1 = test system: Staphylococcus aureus 1
Klebsiella oxytoca = test system: Klebsiella oxytoca
Klebsiella pneumoniae 5 = test system: Klebsiella pneumoniae 5
Pseudomonas aeruginosa 1 = test system: Pseudomonas aeruginosa 1
[4] = test system: Pseudomonas aeruginosa ATCC 27853
Cryptococcus neoformans = test system: Cryptococcus neoformans
Candida glabrata 1 = test system: Candida glabrata 1
Pseudomonas aeruginosa 2 = test system: Pseudomonas aeruginosa 2
[5] = test system: Salmonella enterica subsp. enterica serovar Paratyphi A
Enterococcus faecium = test system: Enterococcus faecium
Escherichia coli = test system: Escherichia coli
Klebsiella pneumoniae 1 = test system: Klebsiella pneumoniae 1
Staphylococcus aureus 4 = test system: Staphylococcus aureus 4
[6] = test system: Stenotrophomonas maltophilia
Candida albicans = test system: Candida albicans
Enterococcus faecalis = test system: Enterococcus faecalis
Bacillus subtilis = test system: Bacillus subtilis
Acinetobacter baumannii = test system: Acinetobacter baumannii
Shigella dysenteriae = test system: Shigella dysenteriae
Candida albicans 1 = test system: Candida albicans 1
Proteus vulgaris = test system: Proteus vulgaris
Proteus mirabilis = test system: Proteus mirabilis
Serratia marcescens = test system: Serratia marcescens
Klebsiella pneumoniae 2 = test system: Klebsiella pneumoniae 2
Candida albicans 5 = test system: Candida albicans 5
Nocardia asteroides = test system: Nocardia asteroides
Bacillus subtilis PY79 = test system: Bacillus subtilis PY79
[7] = test system: Klebsiella pneumoniae ATCC 700603
[8] = test system: Escherichia coli DH5alpha
[9] = test system: Pseudomonas aeruginosa PA14
[10] = test system: Escherichia coli ATCC 25922
[11] = test system: Pseudomonas aeruginosa PAO1
[12] = test system: Staphylococcus aureus ATCC 6538P
[13] = test system: Fusarium graminearum PH-1
[14] = test system: Staphylococcus aureus CCT 2580
[15] = test system: Escherichia coli CCT 1457
[16] = test system: Pseudomonas aeruginosa ATCC 13388
[17] = test system: Bacillus subtilis CCT 2576
[18] = test system: Staphylococcus aureus ATCC 6538
[19] = test system: Salmonella enterica subsp. enterica serovar Choleraesuis ATCC 10708
[20] = test system: Enterococcus faecium CCT 5079
[21] = test system: Staphylococcus aureus CCT 6538
[22] = test system: Streptococcus mutans AU159
[23] = test system: Bacillus thuringiensis ATCC 10792
[24] = test system: Pseudomonas aeruginosa ATCC 15422
[25] = test system: Enterococcus hirae ATCC 10541
[26] = test system: Escherichia coli ATCC 11775
[27] = test system: Salmonella enterica subsp. enterica serovar Typhimurium ATCC 14028
[28] = test system: Bacillus cereus ATCC 11778
[29] = test system: Micrococcus luteus ATCC 4698
[30] = test system: Streptococcus pneumoniae ATCC 11733
[31] = test system: Staphylococcus epidermidis ATCC 12228

MIC [1]: 2.86 µM (≈ 9.37 µg/mL)
MIC [2]: > 60.9 µM
MIC [3]: 2.86 µM (≈ 9.37 µg/mL)
MIC (Arcyria cinerea): 5.71 µM (≈ 18.7 µg/mL)
MIC (Candida glabrata): ≥ 60.9 µM
MIC (Klebsiella pneumoniae): 22.8 µM (≈ 75 µg/mL)
MIC (Bacillus cereus): ≥ 60.9 µM
MIC (Staphylococcus aureus 1): 2.02 µM (≈ 6.63 µg/mL)
MIC (Klebsiella oxytoca): 1.43 µM (≈ 4.69 µg/mL)
MIC (Klebsiella pneumoniae 5): ≥ 60.9 µM
MIC (Pseudomonas aeruginosa 1): 5.71 µM (≈ 18.7 µg/mL)
MIC [4]: 2.86 µM (≈ 9.37 µg/mL)
MIC (Cryptococcus neoformans): ≥ 60.9 µM
MIC (Candida glabrata 1): 2.86 µM (≈ 9.37 µg/mL)
MIC (Pseudomonas aeruginosa 2): 1.43 µM (≈ 4.69 µg/mL)
MIC [5]: 11.4 µM (≈ 37.5 µg/mL)
MIC (Enterococcus faecium): 2.86 µM (≈ 9.37 µg/mL)
MIC (Escherichia coli): 4.04 µM (≈ 13.3 µg/mL)
MIC (Klebsiella pneumoniae 1): 11.4 µM (≈ 37.5 µg/mL)
MIC (Staphylococcus aureus 4): ≥ 60.9 µM
MIC [6]: 11.4 µM (≈ 37.5 µg/mL)
MIC (Candida albicans): 11.4 µM (≈ 37.5 µg/mL)
MIC (Enterococcus faecalis): 22.8 µM (≈ 75 µg/mL)
MIC (Bacillus subtilis): 2.86 µM (≈ 9.37 µg/mL)
MIC (Acinetobacter baumannii): ≥ 60.9 µM
MIC (Shigella dysenteriae): 1.43 µM (≈ 4.69 µg/mL)
MIC (Candida albicans 1): 2.86 µM (≈ 9.37 µg/mL)
MIC (Proteus vulgaris): ≥ 60.9 µM
MIC (Proteus mirabilis): 5.71 µM (≈ 18.7 µg/mL)
MIC (Serratia marcescens): ≥ 60.9 µM
MIC (Klebsiella pneumoniae 2): 5.71 µM (≈ 18.7 µg/mL)
MIC (Candida albicans 5): ≥ 60.9 µM
MIC (Nocardia asteroides): 22.8 µM (≈ 75 µg/mL)
Structure (SMILES): CC[C@H](C)[C@H](NC(=O)[C@H](CO)NC(=O)[C@H](CCCCN)NC(=O)[C@@H](NC(=O)[C@H](CCCCN)NC(=O)[C@H](CCCCN)NC(=O)[C@H](CCCCN)NC(=O)[C@@H](NC(=O)[C@H](CCCCN)NC(=O)[C@@H]1CSSC[C@H](NC(=O)[C@H](CCCCN)NC(=O)[C@@H](N)CCCCN)C(=O)N[C@@H](CCCCN)C(=O)N[C@@H](Cc2ccccc2)C(=O)N[C@@H](Cc2ccccc2)C(=O)N1)C(C)C)[C@@H](C)CC)C(=O)NCC(=O)N[C@@H](Cc1ccccc1)C(=O)N[C@@H](CCC(N)=O)C(=O)N[C@H](C(=O)N1CCC[C@H]1C(=O)N[C@H](C(=O)N[C@H](C(=O)N[C@@H](CO)C(=O)N[C@H](C(=O)N1CCC[C@H]1C(=O)N[C@@H](Cc1ccccc1)C(=O)N[C@@H](CCCCN)C(=O)O)[C@@H](C)CC)C(C)C)[C@@H](C)CC)[C@@H](C)CC [KKCKFFCKVKKKIKSIGFQIPIVSIPFK]

MIC (Bacillus subtilis PY79): ≥ 100 µM
MIC [7]: 3.12 µM (≈ 6.77 µg/mL)
MIC [8]: 12.5 µM (≈ 27.1 µg/mL)
MIC [9]: ≥ 50 µM
MIC [10]: 6.25 µM (≈ 13.6 µg/mL)
MIC [11]: 25 µM (≈ 54.2 µg/mL)
MIC [12]: ≥ 100 µM
Structure (SMILES): CC(=O)NC(CC(C)C)C(=O)NC(CCCNC(=N)N)C(=O)NC(C(=O)NC(CCCNC(=N)N)C(=O)NC(CC(C)C)C(=O)NC(C)C(=O)NC(CO)C(=O)NC(Cc1c[nH]cn1)C(=O)NC(CC(C)C)C(=O)NC(CCCNC(=N)N)C(=O)NC(CCCCN)C(=O)NC(CC(C)C)C(=O)NC(CCCNC(=N)N)C(=O)NC(CCCCN)C(=O)NC(CCCNC(=N)N)C(=O)NC(CC(C)C)C(=O)NC(CC(C)C)C(N)=O)C(C)C (stereo unspecified) [LRVRLASHLRKLRKRLL]

MIC [13]: 12 µM (≈ 10.2 µg/mL)
Structure (SMILES): NC(N)=NCCC[C@H](NC(=O)[C@H](CCCN=C(N)N)NC(=O)[C@H](CCCN=C(N)N)NC(=O)[C@H](Cc1ccccc1)NC(=O)CNC(=O)[C@@H](N)CCCN=C(N)N)C(=O)O [RGFRRR]

MIC [14]: 27.1 µM (≈ 43 µg/mL)
MIC [15]: 19.6 µM (≈ 31 µg/mL)
MIC [2]: 39.7 µM (≈ 63 µg/mL)
MIC [16]: ≥ 158 µM
MIC [17]: 7.38 µM (≈ 11.7 µg/mL)
MIC [18]: 27.1 µM (≈ 42.9 µg/mL)
MIC [20]: ≥ 158 µM
MIC [21]: ≥ 39.7 µM
MIC [22]: ≥ 315 µM
MIC [23]: ≥ 78.9 µM
MIC [24]: ≥ 78.9 µM
MIC [25]: ≥ 39.7 µM
MIC [26]: ≥ 39.7 µM
MIC [27]: 315 µM (≈ 500 µg/mL)
MIC [10]: 14.8 µM (≈ 23.4 µg/mL)
MIC [28]: 10.1 µM (≈ 16 µg/mL)
MIC [29]: 19.6 µM (≈ 31 µg/mL)
MIC [30]: ≥ 78.9 µM
MIC [31]: 39.7 µM (≈ 63 µg/mL)
Structure (SMILES): CC[C@H](C)[C@H](N)C(=O)N[C@@H](CC(N)=O)C(=O)N[C@@H](Cc1c[nH]c2ccccc12)C(=O)N[C@@H](CC(C)C)C(=O)N[C@@H](CCCCN)C(=O)N[C@@H](C)C(=O)N[C@@H](CCCCN)C(=O)N[C@@H](CCCCN)C(=O)N[C@H](C(=O)N[C@@H](C)C(=O)NCC(=O)N[C@@H](CCSC)C(=O)N[C@H](C(=O)N[C@@H](CC(C)C)C(N)=O)[C@@H](C)CC)C(C)C [INWLKAKKVAGMIL]
MIC [19]: ≥ 315 µM
